Read-outs that look alike come from different tables or passages of the source. Values belong to the molecule of their own block, whether it stands above or below them.
Tests used:
[1] = Solubility of ranolazine in aqueous solutions versus solution pH; format: physicochemical
[2] = Ascending-dose SR bid study in healthy male volunteers, Day 5 pharmacokinetics of racemate and enantiomers; format: in vivo, human; conditions: for concentration at 96 h / concentration at 108 h: male, human, plasma, oral; for concentration at 96 h: read-out: C96h; for concentration at 108 h: read-out: C108h; for Differences in pharmacokinetic parameters between enantiomers: multiple dosing with SR formulation
Protocol: This Example evaluated the safety and tolerability of administering racemic ranolazine free base formulations as in Example 3D. The individual and mean concentrations of racemic ranolazine and its enantiomers, (R)-(+)-N-(2,6-dimethylphenyl)-4-[2-hydroxy-3-(2 methoxyphenoxy)-propyl]-1-piperazineacetamide, (S)-(−)-N-(2,6-dimethylphenyl)-4-[2hydroxy-3-(2-methoxyphenoxy)-propyl]-1-piperazineacetamide in human plasma were also determined.
The study was performed with ascending doses of sustained release ranolazine dosage forms. Before and at intervals during and after the dosing period, blood samples were drawn for ranolazine assay and blood pressure, heart rate, ECG and symptoms were monitored throughout. Data summaries were reviewed after each phase before proceeding to the next phase of the study. Eight subjects, all healthy male volunteers aged between 18 and 40 entered and all completed the study and were available for pharmacokinetic and safety analysis. The subjects were each given doses of the various types of ranolazine free base in the form of sustained release tablets including 500 mg and 750 mg tablets or with matching placebo as necessary (2×750 mg size plus 1×500 mg size) to make unit oral doses of 1500 and 2000 mg.
In each phase: one dose bid for four days with a single dose on Day 5. On day 5 each volunteer underwent a full pharmacokinetic profile including supine and erect blood pressure (BP) and heart rate, ECG data, adverse events, clinical chemistry and hematology results, urinalysis results.
These tests were made using two-sided t-tests with estimates of variability from the ANOVA models. Steady state was also assessed by comparing means for C48 h, C72 h and C96 h using a mixed effects ANOVA model and untransformed and log, transformed data. For hemodynamic parameters, Day 1 pre-dose treatment means and Day 5 data were compared across treatments via two-sided t-tests using estimates of variability from mixed effects ANOVA models. Ninety and 95% confidence intervals were calculated for the treatment comparisons. No adjustments were made for multiple comparisons.

[3] = system: Patients, with or without congestive heart failure, with reproducible angina-limited exercise duration; assay: Exercise treadmill tolerance testing (ETT), modified Bruce protocol, crossover versus placebo; format: in vivo, human; conditions: 500-1500 mg bid
Protocol: Patients, with or without congestive heart failure were withdrawn from anti-anginal drugs with reproducible anginalimited exercise duration and >1 mm ST depression were randomized to Ran (500 mg bid, 1000 mg bit and 1500 mg bid) and matching placebo (Pbo) in a double-blind, four-period, Latin square crossover design. Exercise treadmill tolerance testing (ETT) was performed following a modified Bruce protocol, at trough (12 hr after dosing) and peak (4 hr after dosing) dosing times.

[4] = system: dogs with heart failure; assay: Canine model of congestive heart failure (intracoronary microembolizations), hemodynamic and angiographic measurements; format: in vivo, dog; conditions: iv bolus 0.5 mg/kg then 1.0 mg/kg/hr for 40 min
Protocol: The efficacy of ranolazine was studied using a canine model of congestive heart failure. Chronic LV dysfunction and failure was produced by multiple sequential intracoronary embolizations with polystyrene Latex microspheres (70-102 μm in diameter) which results in loss of viable myocardium. In the present study, 13 healthy mongrel dogs weighing between 23 and 25 kg underwent coronary microembolizations to produce heart failure. Intracoronary microembolizations were performed during cardiac catheterization under general anesthesia and sterile conditions. The anesthesia regimen consisted of intravenous oxymorphone hydrochloride (0.22 mg/kg), diazepam (0.17 mg/kg) and sodium pentobarbital (150-250 mg to effect). Dogs underwent an average of 5 microembolization procedures performed 1 to 3 weeks apart. Embolizations were discontinued when LV ejection fraction, determined angiographically, was <30%. Dogs were maintained for a period of 2-3 weeks to ensure that infarctions produced by the last microembolization were completely healed before studies were initiated. […] (The study was approved by the Henry Ford Health System Care of Experimental Animals Committee and conformed to the “Position of the American Heart Association on Research Animal Use,” adopted by the Association in November 1984, and to the Guiding Principles of the American Physiological Society on use of research animals). On the day of the study and following general anesthesia, aortic and LV pressure were measured with a catheter-tip micromanometer (Millar Instruments, Houston, Tex.) positioned through a femoral arteriotomy. Single-plane left ventriculograms were obtained during each catheterization after completion of the hemodynamic measurements with the dog placed on its right side. Ventriculograms were recorded on 35 mm cine film at 30 frames per second during the injection of 20 ml of contrast material (Reno-M-60, Squib, Princeton, N.J.). Correction for image magnification was made with a calibrated radiopaque grid placed at the level of the LV. Left ventricular end-systolic and end-diastolic volumes were calculated from ventricular silhouettes using the area-length method. The LV ejection fraction was calculated as the ratio of the difference of end-diastolic volume and end-systolic volume to end-diastolic volume times 100. Stroke volume was calculated as the difference between LV end-systolic and end-diastolic volumes obtained from the ventriculogram. Cardiac output was calculated as the product of stroke volume and heart rate. Extra systolic and post-extra systolic beats were excluded from all analyses. In each normal or heart failure dog, ranolazine dihydrochloride was administered in saline as an intravenous bolus injection of 0.5 mg/kg followed by a continuous intravenous infusion of 1.0 mg/kg/hr for 40 min. Arterial blood samples were drawn for determination of plasma ranolazine concentration. Samples were obtained at 5, 10, 20, 30, 35 and 40 min after initiation of treatment. Ranolazine was measured by high performance liquid chromatography (HPLC) using mass spectral detection. Following the withdrawal of the final blood sample at 40 min, hemodynamic and angiographic measurements were repeated. Each animal served as its own control. Pre-treatment values were compared to post-treatment values using a two-tailed paired Student's t-test with significance set at p<0.05. Data are presented as the mean±standard error of the mean.

[5] = Arterial plasma ranolazine concentration in normal and heart failure dogs (HPLC-MS); format: in vivo, dog; conditions: for Average ranolazine concentration during the final 10 minutes of treatment: dihydrochloride iv bolus 0.5 mg/kg then 1.0 mg/kg/hr for 40 min, mean±SEM
Protocol: In each normal or heart failure dog, ranolazine dihydrochloride was administered in saline as an intravenous bolus injection of 0.5 mg/kg followed by a continuous intravenous infusion of 1.0 mg/kg/hr for 40 min. Arterial blood samples were drawn for determination of plasma ranolazine concentration. Samples were obtained at 5, 10, 20, 30, 35 and 40 min after initiation of treatment. Ranolazine was measured by high performance liquid chromatography (HPLC) using mass spectral detection. Following the withdrawal of the final blood sample at 40 min, hemodynamic and angiographic measurements were repeated.

SMILES: COc1ccccc1OCC(O)CN1CCN(CC(=O)Nc2c(C)cccc2C)CC1 (racemic) [ranolazine, (±)-N-(2,6-dimethylphenyl)-4-[2-hydroxy-3-(2-methoxyphenoxy)-propyl]-1-piperazineacetamide]
USP Solubility Class ([1]; Solution pH 4.81): Freely Soluble
USP Solubility Class ([1]; Solution pH 4.89): Soluble
USP Solubility Class ([1]; Solution pH 4.90): Soluble
USP Solubility Class ([1]; Solution pH 5.04): Soluble
USP Solubility Class ([1]; Solution pH 5.35): Sparingly Soluble
USP Solubility Class ([1]; Solution pH 5.82): Slightly soluble
USP Solubility Class ([1]; Solution pH 6.46): Slightly soluble
USP Solubility Class ([1]; Solution pH 6.73): Very slightly soluble
USP Solubility Class ([1]; Solution pH 7.08): Very slightly soluble
USP Solubility Class ([1]; Solution pH 7.59 (unbuffered water)): Very slightly soluble
USP Solubility Class ([1]; Solution pH 7.79): Very slightly soluble
USP Solubility Class ([1]; Solution pH 12.66): Very slightly soluble
Solubility in aqueous solutions ([1]; pH above about 6.5): relatively insoluble
Cave ([2]; Day 5, 1500 mg SR bid): 4126 ± 1995 ng/mL
Cmin ([2]; Day 5, 1500 mg SR bid): 2932 ± 1918 ng/mL
Degree of fluctuation ([2]; Day 5, 1500 mg SR bid): 0.664 ± 0.336
Cave ([2]; Day 5, 2000 mg SR bid): 5705 ± 2153 ng/mL
Cmin ([2]; Day 5, 2000 mg SR bid): 4149 ± 2228 ng/mL
Degree of fluctuation ([2]; Day 5, 2000 mg SR bid): 0.591 ± 0.240
Steady-state plasma levels attained by ([2]; SR bid dosing, ranolazine free base): ≤ 4 days
concentration at 96 h ([2]; 1500 mg SR bid): 3660 ± 1920 ng/mL
concentration at 108 h ([2]; 1500 mg SR bid): 2940 ± 1940 ng/mL
concentration at 96 h ([2]; 2000 mg SR bid): 5040 ± 1800 ng/mL
concentration at 108 h ([2]; 2000 mg SR bid): 4400 ± 2400 ng/mL
Effects vs. Pbo on rest or exercise blood pressure or heart rate [3]: no clinically meaningful effects
Exercise duration times in comparison to the placebo [3]: improved
Effect on heart rate ([4]; post- vs pre-treatment): no significant effects
Effect on mean aortic pressure ([4]; post- vs pre-treatment): no significant effects
LV ejection fraction ([4]; post- vs pre-treatment): significant increase
LV peak+dP/dt ([4]; post- vs pre-treatment): significant increase
LV stroke volume ([4]; post- vs pre-treatment): significant increase
LV peak−dP/dt (diastolic function) ([4]; data not shown): increase
Average ranolazine concentration during the final 10 minutes of treatment ([5]; dogs with heart failure): 0.33 ± 0.04 µg/mL
Time by which arterial ranolazine levels stabilized following the bolus injection ([5]; iv bolus plus infusion, dogs): ≤ 10 min
Average ranolazine concentration during the final 10 minutes of treatment ([5]; normal dogs): 0.3 ± 0.02 µg/mL

Cave ([2]; Day 5, 1500 mg SR bid): 2144 ± 1115 ng/mL
Cmin ([2]; Day 5, 1500 mg SR bid): 1436 ± 1046 ng/mL
Degree of fluctuation ([2]; Day 5, 1500 mg SR bid): 0.833 ± 0.402
concentration at 96 h ([2]; 1500 mg SR bid): 2010 ± 1140 ng/mL
concentration at 108 h ([2]; 1500 mg SR bid): 1450 ± 1070 ng/mL
Differences in pharmacokinetic parameters between enantiomers [2]: no differences
SMILES: COc1ccccc1OC[C@H](O)CN1CCN(CC(=O)Nc2c(C)cccc2C)CC1 [(+)R ranolazine, (R)-(+)-N-(2,6-dimethylphenyl)-4-[2-hydroxy-3-(2 methoxyphenoxy)-propyl]-1-piperazineacetamide]

Cave ([2]; Day 5, 1500 mg SR bid): 2201 ± 1237 ng/mL
Cmin ([2]; Day 5, 1500 mg SR bid): 1514 ± 1201 ng/mL
Degree of fluctuation ([2]; Day 5, 1500 mg SR bid): 0.824 ± 0.443
concentration at 96 h ([2]; 1500 mg SR bid): 2400 ± 1200 ng/mL
concentration at 108 h ([2]; 1500 mg SR bid): 1540 ± 1260 ng/mL
Differences in pharmacokinetic parameters between enantiomers [2]: no differences
SMILES: COc1ccccc1OC[C@@H](O)CN1CCN(CC(=O)Nc2c(C)cccc2C)CC1 [(−)S ranolazine, (S)-(−)-N-(2,6-dimethylphenyl)-4-[2hydroxy-3-(2-methoxyphenoxy)-propyl]-1-piperazineacetamide]

— US6528511B2, “Partial fatty acid oxidation inhibitors in the treatment of congestive heart failure” (CV Therapeutics, Inc., priority 2000, dated 2003)
